The source of these data is US20260355357A1, “DIAGNOSTIC AGENTS AND USES THEREOF” (HADASIT MEDICAL RESEARCH SERVICES AND DEVELOPMENT LTD., priority 2023, published 2026).

Series [1] is described as follows: Deuteron T1 determined by Inversion Recovery technique (5.8T, saline). In kind it is physicochemical. As to conditions: for T1 relaxation time of deuterons at D site / HDO T1: 5.8T, saline. On the procedure: Example 1: Determinations of Deuterons T1 in Sugar Molecules
Table 1 describes the difference in T1 of deuterons in water (HDO, natural abundance) and in sites labelled with deuterons in various molecules that were determined using an Inversion Recovery technique. […] PGP-47 TI

A short description of series [2]: Adverse effects after bolus intravenous injection of DDG, rats. It is filed as in vivo, rat. As to conditions: bolus i.v., 37 mg/kg to 248 mg/kg (mice and rats), awake up to 78 min. On the procedure: (§1) Mice and rats, males and females at equal numbers, were intravenously injected with a bolus of varying doses of deuterated 2-deoxy-D-glucose (2-DG, DDG, with varying numbers and positions of deuteration). DDGs were provided by CortecNet, France. The injection was performed under sedation in all rats (18) and in 12 of 18 mice, after which the animals woke up within 1 minute. […] Further to euthanasia, the brain, liver, kidneys, heart, and muscle were excised and immediately placed in liquid nitrogen. The frozen tissue samples were kept at −80 °C until further processing.
(§2) The animals were observed awake for up to 78 min after the injection. The injection bolus was administered in less than 1 s and ranged from 0.1 mL for mice (ca. 25-40 g) to 0.6 mL for rats (ca. 120-160 g).

Series [3] is described as follows: Adverse effects after bolus intravenous injection of DDG, mice. In kind it is in vivo, mouse. As to conditions: bolus i.v., 37 mg/kg to 248 mg/kg (mice and rats), awake up to 78 min. The protocol: as §1, §2
Series [4] has as its system brain slices. The series can be described thus: [6,6-D2]D-glucose uptake and metabolism in perfused brain slices, deuterium NMR. As to conditions: for D-Lac before 1st ischemia: group F; for Maximal D-Lac during 1st ischemia: group G; for D-Lac in between ischemic conditions: group H; for Maximal D-Lac during 2nd ischemia: group I; for D-Lac after 2nd ischemic condition: group J; for D-Glc before 1st ischemia: group A; for Minimum D-Glc during 1st ischemia: group B, 10 min perfusion arrest; for Maximal difference of D-Glc before and during 1st ischemia: group B′; for D-Glc in between ischemic conditions: group C; for Minimum D-Glc during 2nd ischemia: group D; for Maximal difference of D-Glc before and during 2nd ischemia: group D′; for D-Glc after 2nd ischemic condition: group E. In kind it is in vitro ADME, rat (male Sprague-Dawley). The source says:
Male Sprague-Dawley rats (n=4, 70-100 g) were obtained from the Hebrew University Authority of Biological and Biomedical Models. The joint ethics committee (IACUC) of the Hebrew University and Hadassah Medical Center approved the study protocol for animal welfare. The Hebrew University is an AAALAC International accredited institute. Care was taken to minimize the animals' pain and discomfort. Animals were housed in the animal facilities 3-5 days after delivery for acclimatization and fed ad libitum. On the experimental day, animals were transferred to the laboratory and anesthetized within one hour of arrival.
To improve the health of acute brain slices obtained from mature adult rats, we modified a slice preparation technique optimized for in vitro electrophysiology in mature adult rat brain slices. In brief, slice health is improved by a so-called “protective recovery” method. NMDG is an extracellular replacer of sodium ions that prevents sodium ions and water influx into cells, the primary insult causing cell death following brain slicing. […] Furthermore, incubation in HEPES-buffered artificial cerebrospinal fluid (aCSF) improved slice health. The following solutions were prepared in the current study, and their use is described in the sections below.
NMDG-aCSF was used for transcardial perfusion, tissue slicing, and slice recovery. This medium contained 93 mM NMDG, 2.5 mM KCl, 1.2 mM NaH2PO4, 26 mM NaHCO3, 20 mM HEPES, 25 mM D-glucose, 10 mM MgSO4, 0.5 mM CaCl2, 5 mM ascorbic acid, 2 mM thiourea, and 3 mM pyruvic acid in double distilled water.
HEPES-holding aCSF was used to incubate slices following the surgical procedure. This medium contained 84 mM NaCl, 2.5 mM KCl, 1.2 mM NaH2PO4, 30 mM NaHCO3, 20 mM HEPES, 25 mM Glc (D-glucose, non-labeled), 2 mM MgSO4, 2 mM CaCl2, 5 mM ascorbic acid, 2 mM thiourea, and 3 mM pyruvic acid in double distilled water.
Perfusion aCSF was used for perfusion in the NMR spectrometer. This medium contained 115 mM NaCl, 2.5 mM KCl, 1.2 mM NaH2PO4, 24 mM NaHCO3, 5 mM HEPES, 10 mM Glc (to be replaced with 10 mM D-Glc), 2 mM MgSO4, and 2 mM CaCl2 in double distilled water.
All three solutions (1-3) were bubbled with 95%/5% O2/CO2 for at least one hour before use and titrated to a pH of 7.35-7.45 using HCl or NaOH. All concentrations were optimized for a calculated osmolarity of 310±15 mOsm.
Brain slices were extracted and maintained using the above solutions as previously described. Briefly, the rats were anesthetized using a gas anesthesia system (Somnosuite, Kent Scientific, Torrington, CT, USA). Induction was performed in a chamber with 3.5% isoflurane in room air with a flow rate of 440 mL/min. Following 4-7 min of induction, anesthesia was maintained with 3.1-3.2% isoflurane at the same flow rate. Upon obtaining a negative pedal pain reflex, surgery was initiated. First, the diaphragm was exposed and cut, and the rat was transcardially perfused with 30 mL of ice-cold NMDG-aCSF (Solution 1). The animals were then sacrificed by decapitation, and the brain was rapidly removed and placed in ice-cold NMDG-aCSF (Solution 1). The cerebrum was then cut into four parts (first, a sagittal cut along the hemispheric cleft and then a sagittal cut in the middle of each hemisphere). From each part, 350 μm slices were prepared using a McIlwain tissue chopper (The Mickle Laboratory Engineering Company Ltd., Surrey, UK). The process of brain extraction, from decapitation till the brain was in ice-cold NMDG-aCSF, took under 2 min, and the slicing procedure was done in less than 10 min. After cutting, the slices were transferred to warm, 32-34 °C, NMDG-aCSF (Solution 1) for 12 min for protective recovery. Then, the slices were transferred to HEPES-holding aCSF (Solution 2) at ~32 °C for 15-40 min incubation before transfer to the NMR spectrometer, where the slices were perfused with the aCSF of Solution 3. […]

Where [5] appears, read: position 1 (aliphatic), 16-17 °C.
Setting [6] is: position 2 (aliphatic), 16-17 °C.

“And” between values parts separate entries of the source, which are not always exact repeats. Equal values may be shown once. Marks after values point to notes of the source that are not given here.

Regarding `C[N+](C)(C)CCO` [[D13]choline bromide], the “T1 relaxation time of deuterons at D site” value (“T1 relaxation time” for short) in series [1] (setting [5]) is recorded as 389 ms; in series [1] (setting [6]), 396 ms; in series [1] (position 3 (aliphatic), 16-17 °C), 382 ms.

On to `[2H]C1(O)O[C@]([2H])(C([2H])([2H])O)[C@@]([2H])(O)[C@]([2H])(O)C1([2H])[2H]` (stereo partly drawn) [[D8]DDG, [1,2,2,3,4,5,6,6-D8]2-deoxy-D-glucose], for which the adverse effects result in series [2] and in series [3] was “no adverse effects” in each case.

Turning to `[2H]O` [HDO], the “HDO T1” value in series [1] (HDO in the solution of [13C6, D7]glucose, 20 °C) was 279 ms; in series [1] (HDO in the solution of the compound on that line, 16-17 °C) it was 420 ms and 437 ms and 422 ms and 410 ms. The “HDO's T1” value in series [1] (summary of Table 1) is given as “ca. 400 ms”.

Take `[2H]C([2H])C(O)C(=O)O` [D-Lac, [3,3-D2]lactate]: the “time for return to baseline level upon reperfusion” value (“time for return” for short) in series [4] (after 1st ischemic condition) is given as at most 8 min. The “D-Lac accumulation within the cells due to ischemic conditions” value in series [4] (after 2nd reperfusion vs before and between ischemic conditions) was “did not accumulate within the cells due to the ischemic conditions”. Further, in series [4] (after D-Glc administration), the “time of first observation of D-Lac signal” value is reported as at most 8 min. Further, the “time for D-Lac to reach plateau” value in series [4] (after D-Glc administration, n=3) was 12 to 14 min. Besides, the “increase in D-Lac concentration” value in series [4] (both ischemic conditions, n=6) came out at 5.5 ± 1.1 mM. Further, the “D-Lac level without perfusion arrest” value in series [4] (control experiment, no ischemic conditions) is given as “constant throughout”. Moreover, in series [4] (average ± SD, n=3), the “D-Lac before 1st ischemia” value came out at 0.9 ± 0.4 mM, the “Maximal D-Lac during 1st ischemia” value was 5.1 ± 1.3 mM, the “D-Lac in between ischemic conditions” value worked out at 1.1 ± 0.3 mM and the “Maximal D-Lac during 2nd ischemia” value came to 5.91 ± 0.12 mM. Also, the “D-Lac after 2nd ischemic condition” value in series [4] (average ± SD, n=3) was 1.6 ± 0.4 mM. Moreover, in series [4] (individual animals), the “D-Lac before 1st ischemia” value was 0.4 mM and 1.02 mM and 1.4 mM; the “Maximal D-Lac during 1st ischemia” value is 4.8 mM and 3.7 mM and 6.8 mM; the “D-Lac in between ischemic conditions” value is 0.67 mM and 1.29 mM and 1.41 mM; the “Maximal D-Lac during 2nd ischemia” value is 5.85 mM and 6.07 mM and 5.80 mM. The “D-Lac after 2nd ischemic condition” value in series [4] (individual animals) was 1.08 mM and 1.50 mM and 2.16 mM. Besides, the “Maximal D-Lac during 3rd ischemia” value in series [4] (group N, animal 3, 64 min ischemia) came to 10.2 mM. For the same compound, the “D-Lac after 3rd ischemia” value in series [4] (group O, animal 3) was 2.7 mM. The “D-Lac signal in medium without brain slices relative to D-Lac in NMR tube with slices” value in series [4] (perfusion medium, five h, no perfusion arrest) came out at 2.2%.

Consider `N[C@@H](Cc1ccc(O)cc1)C(=O)O` [[^13C9, D7, ^15N]tyrosine], for which the “T1 relaxation time” value in series [1] (aliphatic, 16-17 °C) was 45 ms; in series [1] (aromatic, 16-17 °C), 45 ms.

For the compound `C[N+](C)(C)CCO` [[2-^13C,1,1,2,2-D4]choline chloride], the “T1 relaxation time” value was determined as 422 ms in series [1] (setting [5]) and 404 ms in series [1] (setting [6]).

As to `N[C@@H](Cc1ccc(O)cc1)C(=O)O` [[D7]tyrosine], the “T1 relaxation time” value in series [1] (aliphatic, 16-17 °C) was found to be 48 ms; in series [1] (aromatic, 16-17 °C) it was 43 ms.

As for `OC[C@H]1OC(O)[C@H](O)[C@@H](O)[C@@H]1O` (stereo partly shown) [[^13C6, D7]glucose], in series [1] (aliphatic + ring, 20 °C), the “T1 relaxation time” value was 56 ms.

For `OC[C@H]1OC(O)[C@H](O)[C@@H](O)[C@@H]1O` (stereo partly drawn) [D-Glc, [6,6-D2]D-glucose], the “T1 relaxation time” value in series [1] (aliphatic, 16-17 °C) was 53 ^c ms. For the same compound, in series [4] (after 1st ischemic condition), the “time for return” value is on record as at most 8 min. Further, the “time for return” value in series [4] (after 2nd ischemic condition) was at most 8 min. The “time for D-Glc signal to reach plateau” value in series [4] (after administration of D-Glc to perfusion medium) was at most 6 min. Further, in series [4] (both ischemic conditions, n=6), the “maximal decrease in the D-Glc concentration” value turned out to be 4.3 ± 0.9 mM. For the same compound, in series [4] (during the ischemic conditions), the “conversion of available D-Glc” value was “fully converted to D-Lac”. In addition, in series [4] (average ± SD, n=3), the “D-Glc before 1st ischemia” value was determined as 8.6 ± 0.7 mM; the “Minimum D-Glc during 1st ischemia” value was 4.6 ± 1.5 mM; the “Maximal difference of D-Glc before and during 1st ischemia” value was 3.9 ± 1.3 mM; the “D-Glc in between ischemic conditions” value stood at 8.7 ± 0.7 mM. Moreover, in series [4] (average ± SD, n=3), the “Minimum D-Glc during 2nd ischemia” value was 4.1 ± 0.5 mM; the “Maximal difference of D-Glc before and during 2nd ischemia” value is 4.6 ± 0.3 mM; the “D-Glc after 2nd ischemic condition” value is 9.3 ± 1.1 mM. In series [4] (individual animals), the “D-Glc before 1st ischemia” value is 9.3 mM and 8.8 mM and 7.6 mM; the “Minimum D-Glc during 1st ischemia” value is 4.7 mM and 6.4 mM and 2.8 mM; the “Maximal difference of D-Glc before and during 1st ischemia” value is 4.6 mM and 2.4 mM and 4.8 mM; the “D-Glc in between ischemic conditions” value is 9.5 mM and 8.6 mM and 7.9 mM. For the same compound, in series [4] (individual animals), the “Minimum D-Glc during 2nd ischemia” value is 4.6 mM and 4.2 mM and 3.4 mM; the “Maximal difference of D-Glc before and during 2nd ischemia” value is 4.9 mM and 4.4 mM and 4.5 mM; the “D-Glc after 2nd ischemic condition” value is 10.8 mM and 8.8 mM and 8.2 mM. For the same compound, in series [4] (group K, animal 3), the “D-Glc in between 2nd and 3rd ischemic conditions” value worked out at 8.3 mM. Moreover, the “Minimum D-Glc during 3rd ischemia” value in series [4] (group L, animal 3, 64 min ischemia) is recorded as 1.2 mM. For the same compound, in series [4] (group L′, animal 3), the “Maximal difference of D-Glc before and during 3rd ischemia” value is reported as 7.1 mM. The “D-Glc after 3rd ischemic condition” value in series [4] (group M, animal 3) is listed as 9.1 mM.
